Measured values as given in ChEMBL document CHEMBL1146246, “Synthesis and structure-activity relationship of novel RXR antagonists: orally active anti-diabetic and anti-obesity agents” (Bioorg Med Chem Lett, 2007).
The source made the active and inactive calls. The rule behind the calls is not given here.

Assays:
[1] = molecular target: T1, Retinoic acid receptor RXR-alpha (Homo sapiens, UniProt P19793); test: Inhibition of 9-cis-retinoic acid-induced RXRalpha transactivation
T1 sequence (P19793 whole entry): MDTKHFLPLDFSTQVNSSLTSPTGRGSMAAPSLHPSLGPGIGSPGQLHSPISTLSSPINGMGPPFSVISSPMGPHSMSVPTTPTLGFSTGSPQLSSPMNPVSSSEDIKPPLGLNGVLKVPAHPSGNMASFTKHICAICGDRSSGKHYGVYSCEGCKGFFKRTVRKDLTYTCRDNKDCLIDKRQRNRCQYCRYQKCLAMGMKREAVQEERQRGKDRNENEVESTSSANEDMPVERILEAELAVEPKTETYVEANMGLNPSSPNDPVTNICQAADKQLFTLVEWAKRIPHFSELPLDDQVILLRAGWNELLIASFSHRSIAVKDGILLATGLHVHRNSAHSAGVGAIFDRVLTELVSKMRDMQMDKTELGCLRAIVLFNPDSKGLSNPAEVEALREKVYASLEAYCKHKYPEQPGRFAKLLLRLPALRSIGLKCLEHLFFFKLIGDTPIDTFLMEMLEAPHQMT

[2] = molecular target: T1, Retinoic acid receptor RXR-alpha; test: Inhibition of LG-100268-induced RXRalpha transactivation
Mus musculus [3] = species: Mus musculus; test: Decrease in plasma insulin concentration in obese/diabetic KKAy mouse; format: ADME, organism-based
Mus musculus [4] = species: Mus musculus; test: Decrease in plasma glucose concentration in obese/diabetic KKAy mouse; format: ADME, organism-based
Mus musculus [5] = species: Mus musculus; test: Decrease in body weight gain in obese/diabetic KKAy mouse; format: functional, organism-based

| Compound | IC50 [1] [µM] | IC50 [2] [µM] | Activity (Mus musculus [3]) | Activity (Mus musculus [4]) | Activity (Mus musculus [5]) |
| --- | --- | --- | --- | --- | --- |
| CN1c2ccc(C#N)cc2N=C(c2ccc(C(=O)O)cc2)c2cc3c(cc21)C(C)(C)CCC3(C)C | 0.43 | 0.82 |  |  |  |
| CCN1c2ccc(C(C)=O)cc2N=C(c2ccc(C(=O)O)cc2)c2cc3c(cc21)C(C)(C)CCC3(C)C | 0.79 | 0.97 |  |  |  |
| CN1c2ccc(S(=O)(=O)N3CCCC3)cc2N=C(c2ccc(C(=O)O)cc2)c2cc3c(cc21)C(C)(C)CCC3(C)C | 0.45 | 1 |  |  |  |
| CC(=O)c1ccc2c(c1)N=C(c1ccc(C(=O)O)cc1)c1cc3c(cc1N2C)C(C)(C)CCC3(C)C | 0.89 | 1.1 |  |  |  |
| CN1c2ccc(C#N)cc2N=C(c2ccc(C(=O)O)c(F)c2)c2cc3c(cc21)C(C)(C)CCC3(C)C | 0.52 | 1.2 |  |  |  |
| CC(=O)c1ccc2c(c1)N=C(c1ccc(C(=O)O)c(F)c1)c1cc3c(cc1N2C)C(C)(C)CCC3(C)C | 1.1 | 1.7 |  |  |  |
| COc1ccc(CSc2ccc3c(c2)N=C(c2ccc(C(=O)O)cc2)c2cc4c(cc2N3C)C(C)(C)CCC4(C)C)cc1 | 5.5 | 4.9 |  |  |  |
| CSc1ccc2c(c1)N=C(c1ccc(C(=O)O)cc1)c1cc3c(cc1N2C)C(C)(C)CCC3(C)C | 2 | 3 |  |  |  |
| CCN1c2ccc(C#N)cc2N=C(c2ccc(C(=O)O)cc2F)c2cc3c(cc21)C(C)(C)CCC3(C)C | 0.53 | 1.1 |  |  |  |
| CCCN1c2ccc(C#N)cc2N=C(c2ccc(C(=O)O)cc2)c2cc3c(cc21)C(C)(C)CCC3(C)C | 2.1 | 2.1 |  |  |  |
| COc1ccc(CS(=O)(=O)c2ccc3c(c2)N=C(c2ccc(C(=O)O)cc2)c2cc4c(cc2N3C)C(C)(C)CCC4(C)C)cc1 | 0.78 | 1.4 |  |  |  |
| CN1c2ccc(N3CCOCC3)cc2N=C(c2ccc(C(=O)O)cc2)c2cc3c(cc21)C(C)(C)CCC3(C)C | 3.9 | 7 |  |  |  |
| CN1c2ccc(S(=O)(=O)Nc3ccc(OC(F)(F)F)cc3)cc2N=C(c2ccc(C(=O)O)cc2)c2cc3c(cc21)C(C)(C)CCC3(C)C | 0.46 | 0.96 |  |  |  |
| CN1c2ccc(S(=O)(=O)c3ccc(OC(F)(F)F)cc3)cc2N=C(c2ccc(C(=O)O)cc2)c2cc3c(cc21)C(C)(C)CCC3(C)C | 0.13 | 0.24 |  |  |  |
| COc1ccc(S(=O)(=O)c2ccc3c(c2)N=C(c2ccc(C(=O)O)cc2)c2cc4c(cc2N3C)C(C)(C)CCC4(C)C)cc1 | 0.17 | 0.36 |  |  |  |
| CN1CCN(S(=O)(=O)c2ccc3c(c2)N=C(c2ccc(C(=O)O)cc2)c2cc4c(cc2N3C)C(C)(C)CCC4(C)C)CC1 | 1 | 1.9 |  |  |  |

| Compound | IC50 [1] [µM] | IC50 [2] [µM] | Activity (Mus musculus [3]) | Activity (Mus musculus [4]) | Activity (Mus musculus [5]) |
| --- | --- | --- | --- | --- | --- |
| CCCS(=O)(=O)c1ccc2c(c1)N=C(c1ccc(C(=O)O)cc1)c1cc3c(cc1N2C)C(C)(C)CCC3(C)C | 0.45 | 0.92 |  |  |  |
| CCCCNS(=O)(=O)c1ccc2c(c1)N=C(c1ccc(C(=O)O)cc1)c1cc3c(cc1N2C)C(C)(C)CCC3(C)C | 0.19 | 0.41 |  |  |  |
| CN1c2ccc(S(=O)(=O)N3CCOCC3)cc2N=C(c2ccc(C(=O)O)cc2)c2cc3c(cc21)C(C)(C)CCC3(C)C | 0.45 | 1 |  |  |  |
| CN1c2ccc(SCc3ccc(Cl)cc3)cc2N=C(c2ccc(C(=O)O)cc2)c2cc3c(cc21)C(C)(C)CCC3(C)C | 0.67 | 1.6 |  |  |  |
| CCN1c2ccc(C(C)=O)cc2N=C(c2ccc(C(=O)O)cc2F)c2cc3c(cc21)C(C)(C)CCC3(C)C | 3 | 3.3 |  |  |  |
| CN1c2ccc(Sc3ccc(OC(F)(F)F)cc3)cc2N=C(c2ccc(C(=O)O)cc2)c2cc3c(cc21)C(C)(C)CCC3(C)C | 0.39 | 1 |  |  |  |
| CN1c2ccc(S(C)(=O)=O)cc2N=C(c2ccc(C(=O)O)cc2)c2cc3c(cc21)C(C)(C)CCC3(C)C | 1.4 | 1.7 |  |  |  |
| COc1ccc(Sc2ccc3c(c2)N=C(c2ccc(C(=O)O)cc2)c2cc4c(cc2N3C)C(C)(C)CCC4(C)C)cc1 | 0.72 | 1.6 |  |  |  |
| CNS(=O)(=O)c1ccc2c(c1)N=C(c1ccc(C(=O)O)cc1)c1cc3c(cc1N2C)C(C)(C)CCC3(C)C | 1.3 | 1.3 |  |  |  |
| CCN1c2ccc(C#N)cc2N=C(c2ccc(C(=O)O)c(F)c2)c2cc3c(cc21)C(C)(C)CCC3(C)C | 0.5 | 0.77 | Active | Active | Active |
| CCN1c2ccc(C#N)cc2N=C(c2ccc(C(=O)O)cc2)c2cc3c(cc21)C(C)(C)CCC3(C)C | 0.32 | 0.48 |  |  |  |
| CN1c2ccc(S(=O)(=O)Cc3ccc(Cl)cc3)cc2N=C(c2ccc(C(=O)O)cc2)c2cc3c(cc21)C(C)(C)CCC3(C)C | 0.42 | 0.95 |  |  |  |
| CC(=O)c1ccc2c(c1)N=C(c1ccc(C(=O)O)cc1F)c1cc3c(cc1N2C)C(C)(C)CCC3(C)C |  | 4.6 |  |  |  |
| CN1CCN(c2ccc3c(c2)N=C(c2ccc(C(=O)O)cc2)c2cc4c(cc2N3C)C(C)(C)CCC4(C)C)CC1 |  | 11 |  |  |  |
| CN1c2ccc(S(=O)(=O)N(C)C)cc2N=C(c2ccc(C(=O)O)cc2)c2cc3c(cc21)C(C)(C)CCC3(C)C | 2 | 2.2 |  |  |  |
